These results are taken from the supplement of paper PMC11208160.

The data set can be described thus: recombinant UMI read abundance after kanamycin selection (control-corrected) (log10(CPM+1)); higher = more efficient recombination; extreme values may be limits of the assay; sequences stand for … in AGTGCAGAGAAAATCGGCCAGTTTTCTCTGCCTGCAGTCCGCATGCCGTGGGACCCCTTGGGTTCTAACCTGTTGCCTAGATTTATGCAGCGGACTGCCTTTCTCCCAAAGTGATAAACCGG…AGGTTGGTTTCACT; site = the 11-nt donor. Here is the method:
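Pooled E. coli donor-specificity screen for the IS621 bridge recombinase. Each library member carries a reprogrammed 11-nt donor and a full-length LE bridge RNA expressed in cis from the natural promoter, with a paired donor-binding loop (8-nt LDG + 4-nt RDG) and a target-binding loop fixed to T5. It is co-electroporated with a T5 target plasmid; recombinase is induced with 0.07 mM IPTG and recombinants are selected on kanamycin. UMIs are counted as CPM, averaged over two biological replicates and corrected by the unselected control. Molecule = full bridge RNA written as DNA, built from the T5 scaffold: LDG = donor specificity nt 1-8, RDG = reverse complement of nt 8-11.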
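Also: IS621 bridge recombinase in Escherichia coli cells against a fixed T5 target plasmid.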

In the case of “AAAACTTCATGGACCGGTTTTCCCGGTAATCCGTATTTGTC (site AAAACTTCTGA)”, the “recombinant UMI read abundance (log10)” value was 0. Under “AAAAGTCCATGGACCGGTTTTCCCGGTAATCCGTATTTGTA (site AAAAGTCCTTA)” stands 0.66; under “AAAAGTCCATGGACCGGTTTTCCCGGTAATCCGTATTTGTA (site CAAAGTCCTTA)”, 0.48.

For “AAAAGTCCATGGACCGGTTTTCCCGGTAATCCGTATTTGTA (site GAAAGTCCTTA)”, the “recombinant UMI read abundance (log10)” value was determined as 0.273. Under “AAAAGTCCATGGACCGGTTTTCCCGGTAATCCGTATTTGTA (site TAAAGTCCTTA)” stands 1.12; under “AAACATCCATGGACCGGTTTTCCCGGTAATCCGTATTTGAC (site AAACATCCTGT)”, 1.26.

Take “AAACATCCATGGACCGGTTTTCCCGGTAATCCGTATTTGAC (site ACACATCCTGT)”: the “recombinant UMI read abundance (log10)” value stood at 0. For “AAACATCCATGGACCGGTTTTCCCGGTAATCCGTATTTGAC (site AGACATCCTGT)”, the “recombinant UMI read abundance (log10)” value worked out at 0.

With “AAACATCCATGGACCGGTTTTCCCGGTAATCCGTATTTGAC (site ATACATCCTGT)”, the “recombinant UMI read abundance (log10)” value was 0.

As to “AAACGTCCATGGACCGGTTTTCCCGGTAATCCGTATTTGTT (site AAACGTCCTAA)”, the “recombinant UMI read abundance (log10)” value is 0.525.

In the case of “AAACTTACATGGACCGGTTTTCCCGGTAATCCGTATTTGCA (site AAACTTACTTG)”, the “recombinant UMI read abundance (log10)” value was 1.52. Under “AAACTTGCATGGACCGGTTTTCCCGGTAATCCGTATTTGGC (site AAACTTGCTGC)” stands 0; under “AAAGAAGCATGGACCGGTTTTCCCGGTAATCCGTATTTGGA (site AAAGAAGCTTC)”, 1.94; under “AAAGAGGCATGGACCGGTTTTCCCGGTAATCCGTATTTGCA (site AAAGAGGCTTG)”, 2.9. Under “AAAGATCCATGGACCGGTTTTCCCGGTAATCCGTATTTGCC (site AAAGATCCTGG)” stands 0; under “AAAGCAGCATGGACCGGTTTTCCCGGTAATCCGTATTTGCT (site AAAGCAGCTAG)”, 1.82; under “AAAGCAGCATGGACCGGTTTTCCCGGTAATCCGTATTTGCT (site CAAGCAGCTAG)”, 1.5. Next, “AAAGCAGCATGGACCGGTTTTCCCGGTAATCCGTATTTGCT (site GAAGCAGCTAG)”: 0.198; “AAAGCAGCATGGACCGGTTTTCCCGGTAATCCGTATTTGCT (site TAAGCAGCTAG)”: 1.67.

As for “AAAGCCACATGGACCGGTTTTCCCGGTAATCCGTATTTGTA (site AAAGCCACTTA)”, the “recombinant UMI read abundance (log10)” value turned out to be 1.82.

In the case of “AAAGGTACATGGACCGGTTTTCCCGGTAATCCGTATTTGAG (site AAAGGTACTCT)”, the “recombinant UMI read abundance (log10)” value was 2.1. Under “AAAGGTTCATGGACCGGTTTTCCCGGTAATCCGTATTTGGG (site AAAGGTTCTCC)” stands 1.05. Under “AAAGTAACATGGACCGGTTTTCCCGGTAATCCGTATTTGCA (site AAAGTAACTTG)” stands 2.88. Next, “AAAGTAACATGGACCGGTTTTCCCGGTAATCCGTATTTGCA (site ACAGTATCTTG)”: 2.56. As for “AAAGTACCATGGACCGGTTTTCCCGGTAATCCGTATTTGCG (site AAAGTACCTCG)”, the “recombinant UMI read abundance (log10)” value was determined as 0.0963. Under “AAAGTCTCATGGACCGGTTTTCCCGGTAATCCGTATTTGAT (site AAAGTCTCTAT)” stands 3.17; under “AAAGTCTCATGGACCGGTTTTCCCGGTAATCCGTATTTGCA (site AAAGTCTCTTG)”, 3.16; under “AAAGTCTCATGGACCGGTTTTCCCGGTAATCCGTATTTGCA (site ACAGTATCTTG)”, 1.99. Under “AAATAACCATGGACCGGTTTTCCCGGTAATCCGTATTTGAA (site AAATAACCTTT)” stands 0. Under “AAATAAGCATGGACCGGTTTTCCCGGTAATCCGTATTTGGG (site AAATAAGCTCC)” stands 0.434; under “AAATCCGCATGGACCGGTTTTCCCGGTAATCCGTATTTGTC (site AAATCCGCTGA)”, 2.33. In the case of “AAATGGGCATGGACCGGTTTTCCCGGTAATCCGTATTTGCT (site AAATGGGCTAG)”, the “recombinant UMI read abundance (log10)” value is 2.28. “AAATGTTCATGGACCGGTTTTCCCGGTAATCCGTATTTGCC (site AAATGTTCTGG)”: the “recombinant UMI read abundance (log10)” value was determined as 2.2.

Turning to “AAATTCCCATGGACCGGTTTTCCCGGTAATCCGTATTTGCT (site AAATTCCCTAG)”, the “recombinant UMI read abundance (log10)” value amounted to 1.37. Next, “AAATTCCCATGGACCGGTTTTCCCGGTAATCCGTATTTGCT (site CAATTCCCTAG)”: 0.647. Consider “AAATTCCCATGGACCGGTTTTCCCGGTAATCCGTATTTGCT (site GAATTCCCTAG)”, for which the “recombinant UMI read abundance (log10)” value came out at 0.544.

In the case of “AAATTCCCATGGACCGGTTTTCCCGGTAATCCGTATTTGCT (site TAATTCCCTAG)”, the “recombinant UMI read abundance (log10)” value turned out to be 1.08. Regarding “AAATTCCCATGGACCGGTTTTCCCGGTAATCCGTATTTGGT (site AAATTCCCTAC)”, the “recombinant UMI read abundance (log10)” value was found to be 0. Under “AACACACCATGGACCGGTTTTCCCGGTAATCCGTATTTGAC (site AACACACCTGT)” stands 0; under “AACACCTCATGGACCGGTTTTCCCGGTAATCCGTATTTGAT (site AACACCTCTAT)”, 1.76. For the sequence “AACAGAGCATGGACCGGTTTTCCCGGTAATCCGTATTTGAT (site AACAGAGCTAT)”, the “recombinant UMI read abundance (log10)” value turned out to be 2.02. Under “AACCAAACATGGACCGGTTTTCCCGGTAATCCGTATTTGTC (site AACCAAACTGA)” stands 0; under “AACCCACCATGGACCGGTTTTCCCGGTAATCCGTATTTGGA (site AACCCACCTTC)”, 0.0204. Under “AACCGCCCATGGACCGGTTTTCCCGGTAATCCGTATTTGAT (site AACCGACCTAT)” stands 0.0035; under “AACCGCCCATGGACCGGTTTTCCCGGTAATCCGTATTTGAT (site AACCGCCCTAT)”, 0.00906. On to “AACCGCCCATGGACCGGTTTTCCCGGTAATCCGTATTTGAT (site AACCGGCCTAT)”, for which the “recombinant UMI read abundance (log10)” value amounted to 0.00971.

As for “AACCGCCCATGGACCGGTTTTCCCGGTAATCCGTATTTGAT (site AACCGTCCTAT)”, the “recombinant UMI read abundance (log10)” value worked out at 0.0447. Under “AACCGGCCATGGACCGGTTTTCCCGGTAATCCGTATTTGAT (site AACCGACCTAT)” stands 0. On to “AACCGGCCATGGACCGGTTTTCCCGGTAATCCGTATTTGAT (site AACCGCCCTAT)”, for which the “recombinant UMI read abundance (log10)” value stood at 0.014. As to “AACCGGCCATGGACCGGTTTTCCCGGTAATCCGTATTTGAT (site AACCGGCCTAT)”, the “recombinant UMI read abundance (log10)” value was 0.016. Under “AACCGGCCATGGACCGGTTTTCCCGGTAATCCGTATTTGAT (site AACCGTCCTAT)” stands 0.0213; under “AACCGGTCATGGACCGGTTTTCCCGGTAATCCGTATTTGGA (site AACCGGTCTTC)”, 0.422.
